Experimental data reported in patent US6787557B2 (priority 2000, dated 2004).
Where “and” joins values, the source holds several entries; their conditions need not be identical. Identical values can stand only once. Like-named read-outs stand apart in the source and are kept apart here.

How the values were obtained:
rice blast fungi [1] = type: in vivo, Pyricularia oryzae
rice blast fungi [2] = type: in vivo, Pyricularia oryzae; remark: listed apart in the source

Molecule	Protective value (rice blast fungi [1]; in vivo)	Protective value (rice blast fungi [2]; in vivo)	Protective value (rice blast fungi [1]; 3 ppm)	Protective value (rice blast fungi [1]; 10 ppm)	Protective value (rice blast fungi [2]; 30 ppm)	Protective value (rice blast fungi [2]; 100 ppm)	Protective value (rice blast fungi [2]; 37.5 ppm)	Protective value (rice blast fungi [2]; 75 ppm)
2,3-dimethyl-6-t-butyl-8-fluoro-4-n-butoxycarbonyl-quinoline [Compound 9]	99 and 90	98 and 87	–	–	–	–	–	–
2,3-dimethyl-6-t-butyl-8-fluoro-4-methoxyacetylquinoline [Compound 10]	–	–	99	100	90	100	–	–
2,3-dimethyl-6-t-butyl-8-fluoro-4-butyrylquinoline [Compound 4]	–	–	–	–	–	–	66	94
2,3-dimethyl-6-t-butyl-8-fluoro-4-n-propoxycarbonyl-quinoline [Compound 8]	100 and 92	98 and 84	–	–	–	–	–	–
Cc1nc2c(F)cc(C(C)(C)C)cc2c(O)c1C [Compound 1, 2,3-dimethyl-6-t-butyl-8-fluoro-4-hydroxyquinoline]	–	–	93	100	–	–	–	–
2,3-dimethyl-6-t-butyl-8-fluoro-4-valerylquinoline [Compound 5]	–	–	84	99	–	–	82	95
2,3-dimethyl-6-t-butyl-8-fluoro-4-acetoxyacetylquinoline [Compound 11]	–	–	94	100	88	99	–	–
